From patent US11376224B2, “System for delivery of FK506 for enhancing nerve regeneration” (THE HOSPITAL FOR SICK CHILDREN, priority 2016, dated 2022)

Test: FK506 tissue concentrations (organ exposure) by mass spectrometry after drug delivery system implantation
Type: in vivo, Sprague-Dawley rats
Method: FK506 was detectable within the proximal injured sciatic nerve, DRGs (L4, L5), the entire spinal cord, and the muscles surrounding the nerve repair site, decreasing in concentration over time. FK506 content within the tissues was determined using mass spectrometry. (Mean±standard deviation, n=4).
Thirty adult female Sprague-Dawley rats were randomized into five groups (n=6). The experimental group included rats treated with fibrin gel loaded with FK506 by incorporating 10 microliters solubilized FK506 in acetonitrile (2 milligrams per milliliter), 200 micrograms solid FK506 particulates, or 5 milligrams of FK506 containing microspheres into the thrombin solution before it was mixed with fibrinogen to form a gel.
During the procedure, the sciatic nerve was exposed and the main branches were dissected. The tibial (TIB) nerve was transected 5 millimeters distal to its bifurcation from the common peroneal (CP) nerve and sural nerves with fine microsurgical scissors. The proximal TIB nerve stump was cross-sutured to the distal stump of a cut CP nerve. In the groups receiving the fibrin gel based drug delivery system, the nerve suture site was surrounded by two 40 microliters of the fibrin gels (containing applicable components for each group) formed by pipetting the fluid fibrin mixture onto a Parafilm sheet as semi-rectangular drops (˜5×5 millimeters) and placing the drops above and below the repair site. By gently opposing the drops, the delivery system was secured around the nerve. Three weeks after repair, the number of neurons that regenerated their axons were determined using retrograde labeling 7 millimeter distal to the repair site. Nerve samples at the location of retrograde labeling were collected for histomorphometric analysis. Using mass spectrometry, FK506 tissue concentrations were analyzed at the site of the injury, in sciatic nerve, dorsal root ganglia (DRGs), spinal cord, brain, heart, liver, kidney, and plasma at 7, 14, and 28 days post repair.

[1] = first week of drug release in vivo (7 days)

FK506 levels in sciatic nerve, gluteal muscles, spinal cord, kidney (at 14 days): barely detectable levels | FK506 within the DRGs (L4, L5) (at 14 days): accumulation | FK506 within the DRGs (L4, L5) (at 28 days): undetectable | FK506 levels in sciatic nerve, gluteal muscles, spinal cord, kidney (by 28 days): undetectable levels | FK506 in contralateral sciatic nerve, contralateral gluteal muscles, contralateral L4-L5 DRGs (entire period of the treatment): did not contain any FK506 | FK506 in plasma, brain, liver, or heart (entire study period): not detectable | FK506 in entire spinal cord [1]: highest level | FK506 in gluteal muscles surrounding the nerve [1]: detected
SMILES: C=CC[C@@H]1/C=C(\C)C[C@H](C)C[C@H](OC)[C@H]2O[C@@](O)(C(=O)C(=O)N3CCCC[C@H]3C(=O)O[C@H](/C(C)=C/[C@@H]3CC[C@@H](O)[C@H](OC)C3)[C@H](C)[C@@H](O)CC1=O)[C@H](C)C[C@@H]2OC [FK506]
FK506 in proximal injured sciatic nerve [1]: detected
